Molecules are shown by their SMILES.

Among the data in US20260216219A1, “MODULATOR FOR PROMOTING BINDING OF BUTYROPHILIN 3A1/2A1” (priority 2023, published 2026) are EC50 values, retold here.

One assay has as its system MIAPaCa/FG2 cells. Put plainly: EC50 assay of small molecule activated γδ T cells to kill tumor cells (3-fold dilution, 0.05-100 nM). It is filed as cell-based. The following applies: T-cell, γδT cells co-cultured with MIAPaCa/FG2 cells, E:T=2:1, 20 hours, compound diluted 3-fold, chemiluminescence, read-out: killing data of MIAPaCa/FG2 cells (EC50). How it is done: γδT cells and MIAPaCa/FG2 tumor cell lines were expanded and cultured in vitro. MIAPaCa/FG2 cells were digested, and the cells were counted and resuspended in DMEM complete medium, the density of the cell suspension was adjusted and added into a 96-well plate at 5×10^3 cells/50 μL/well for overnight incubation. On the next day, the test compound and the control compound were diluted at a 3-fold ratio with DMSO, and 4 μL of the diluted compound was added to 96 μL of culture medium for 25-fold dilution. 5 μL of 25-fold diluted compound was transferred to the corresponding well which had been plated with tumor cells, and the actual detection concentration was in the range of 0.05-100 nM. γδT cells were resuspended in γδT complete medium, and the density of the cell suspension was adjusted according to the effector-target ratio of E:T=2:1, and then the cell was added to the corresponding well at 1×10^4 cells/100 μL/well. After co-culture at 37° C., 5% CO2 for 20 hours, the cells were centrifuged. The supernatant was removed, and 50 μL of cell lysate containing […] substrate was added to each well. After standing for 18 minutes in the dark, the signal of chemiluminescence was detected. The EC50 value was calculated by four-parameter fitting, with the corresponding signal value of the well with only tumor cells as the minimum killing value, and the corresponding value of the well without tumor cells as the maximum killing value. The killing data of MIAPaCa/FG2 cells are as follows: […]
For the compound `C/C(=C\CCP(=O)(N[C@@H](C)C(=O)OC(C)C)Oc1ccccc1)CO` (stereo partly drawn) [Control compound 1, Isopropyl (((E)-5-hydroxy-4-methylpent-3-en-1-yl)(phenoxy)phosphoryl)-L-alaninate, reference compound], the EC50 was 0.53 nM.

Still in this assay, the particulars now being: γδT cells co-cultured with MIAPaCa/FG2 cells, E:T=2:1, 20 hours, compound diluted 3-fold, chemiluminescence, read-out: killing data of MIAPaCa/FG2 cells (EC50).
Take `C/C(=C\CCP(=O)(N[C@@H](C)C(=O)OCC(C)C)Oc1ccc(C[C@H](NCCCc2ccccc2)C(=O)O[C@H]2CCOC2)cc1)CO` (stereo partly drawn) [Compound 12, (S)-tetrahydrofuran-3-yl (2S)-3-(4-((((E)-5-hydroxy-4-methylpent-3-en-1-yl)(((S)-1-isobutoxy-1-oxopropan-2-yl)amino)phosphoryl)oxy)phenyl)-2-((3-phenylpropyl)amino)propionate]: the EC50 came out at 0.011 nM.

Regarding `C/C(=C\CCP(=O)(N[C@@H](C)C(=O)OC(C)C)Oc1ccc(C[C@H](NCCCc2ccccc2)C(=O)O[C@H]2CCOC2)cc1)CO` (stereo partly drawn) [Compound 9], the EC50 worked out at 0.012 nM.

With `C/C(=C\CCP(=O)(N[C@@H](C)C(=O)OCC(C)C)Oc1ccc(C[C@H](NCCCc2ccccc2)C(=O)NC(C)C)cc1)CO` (stereo partly drawn) [Compound 16, Isobutyl (((E)-5-hydroxy-4-methylpent-3-en-1-yl)(4-((S)-3-(isopropylamino)-3-oxo-2-((3-phenylpropyl)amino)propyl)phenoxy)phosphoryl)-L-alaninate], the EC50 worked out at 0.011 nM.

Turning to `C/C(=C\CC[P@@](=O)(N[C@@H](C)C(=O)NC(C)C)Oc1ccc(C[C@H](NCCCc2ccccc2)C(=O)O[C@H]2CCOC2)cc1)CO` [Compound 14], the EC50 worked out at 0.016 nM.

As for `C/C(=C\CC[P@](=O)(N[C@@H](C)C(=O)NC(C)C)Oc1ccc(C[C@H](NCCCc2ccccc2)C(=O)O[C@H]2CCOC2)cc1)CO` [Compound 15], the EC50 was 1.6 nM.

For `C/C(=C\CCP(=O)(N[C@@H](C)C(=O)OC(C)C)Oc1ccc(C[C@H](NCCc2ccccc2)C(=O)O[C@H]2CCOC2)cc1)CO` (stereo partly drawn) [Compound 11, (S)-Tetrahydrofuran-3-yl (2S)-3-(4-((((E)-5-hydroxy-4-methylpent-3-en-1-yl)(((S)-1-isopropoxy-1-oxopropan-2-yl)amino)phosphor yl)oxy)phenyl)-2-(phenethylamino)propionate], the EC50 stood at 41.7 nM.

Take `CCC(CC)OC(=O)[C@H](C)NP(=O)(CC/C=C(\C)CO)Oc1ccc(C[C@H](NCCCc2ccccc2)C(=O)O[C@H]2CCOC2)cc1` (stereo partly drawn) [Compound 13, (S)-tetrahydrofuran-3-yl (2S)-3-(4-((((E)-5-hydroxy-4-methylpent-3-en-1-yl)(((S)-1-oxo-1-(pentan-3-yloxy)propan-2-yl)amino)phosphoryl)oxy)phenyl)-2-((3-phenylpropyl)amino)propionate]: the EC50 turned out to be 0.42 nM.

On to `C/C(=C\CCP(=O)(N[C@@H](C)C(=O)OC(C)C)Oc1ccc(C[C@H](NCCCc2ccccc2)C(=O)O[C@@H]2CCOC2)cc1)CO` (stereo partly drawn) [Compound 8], for which the EC50 was 0.052 nM.

The test system of the next assay is MIAPaCa/FG2 cells. Put plainly: EC50 assay of small molecule activated γδ T cells to kill tumor cells (10-fold dilution, 10^-12-10^-5 M). It is filed as cell-based. The note with it: Homo sapiens, MIA PaCa-2, 20 h, read-out: MIApaca killing (nM). As to the method: γδT cells and MIAPaCa/FG2 tumor cell lines were expanded and cultured in vitro. The MIAPaCa/FG2 cells were digested, and the cells were counted and resuspended in DMEM complete medium, the density of the cell suspension was adjusted and added into a 96-well plate at 5×10^3 cells/50 μL/well for overnight incubation. On the next day, the test compound and the control compound were diluted at a 10-fold ratio with γδT complete medium. 50 μL of diluted compound was transferred to the corresponding wells which had been plated with tumor cells, and the actual detection concentration was in the range of 10^−12-10^−5 M. γδT cells were resuspended in γδT complete medium, and the density of the cell suspension was adjusted according to the effector-target ratio of E:T=2:1, and then the cells were added to the corresponding wells at 1×10^4 cells/50 μL/well. After co-culture at 37° C., 5% CO2 for 20 hours, the cells were centrifuged. The supernatant was removed, and 50 μL of cell lysate containing luciferin substrate was added to each well. After standing for 18 minutes in the dark, the signal of chemiluminescence was detected. The EC50 value was calculated by four-parameter fitting, with the corresponding signal value of the well with only tumor cells as the minimum killing value, and the corresponding signal value of the well without tumor cells as the maximum killing value. The killing data of MIAPaCa/FG2 cells are as follows: […]
In the case of `C/C(=C\CCP(=O)(N[C@@H](C)C(=O)OC(C)C)Oc1ccccc1)CO` (stereo partly drawn) [Control compound 1, Isopropyl (((E)-5-hydroxy-4-methylpent-3-en-1-yl)(phenoxy)phosphoryl)-L-alaninate, reference compound], the EC50 amounted to 0.57 nM.

Staying with this assay, now noted: Homo sapiens, MIA PaCa-2; γδT cells co-cultured with MIAPaCa/FG2 cells, E:T=2:1, 20 hours; compound diluted 10-fold, 10^-12-10^-5 M; chemiluminescence; read-out: MIApaca killing.
In the case of `CC(C)OC(=O)[C@H](Cc1ccc(OP(=O)(N[C@@H](C)C(=O)OC2CCCC2)OC/C=C(/CO)C(F)(F)F)cc1)NC(=O)OCc1ccccc1` (stereo partly drawn) [Compound 7], the EC50 turned out to be 9.6 nM.

Turning to `CC(C)OC(=O)[C@H](C)NP(=O)(OC/C=C(/CO)C(F)(F)F)Oc1ccc(C[C@H](NC(=O)OCc2ccccc2)C(=O)OC2CCCC2)cc1` (stereo partly drawn) [Compound 6], the EC50 was determined as 11.4 nM.

Still in this assay, the particulars now being: read-out: MIApaca killing; γδT cells co-cultured with MIAPaCa/FG2 cells, E:T=2:1, 20 hours; compound diluted 10-fold, 10^-12-10^-5 M; chemiluminescence.
As for `C/C(=C\CCP(=O)(N[C@@H](C)C(=O)OC1CCCC1)Oc1ccc(C[C@H](NC(=O)OCc2ccccc2)C(=O)OC(C)C)cc1)CO` (stereo partly drawn) [Compound 4, Isopropyl (2S)-2-(benzyloxycarbonylamino)-3-[4-[[(E)-5-hydroxy-4-methyl-pent-3-enyl]-[[(1S)-2-isocyclopentyloxy-1-methyl-2-oxo-ethyl]amino]phosphoryl]oxyphenyl]propionate], the EC50 was found to be 0.07 nM.

Take `C/C(=C\CCP(=O)(N[C@@H](C)C(=O)OC(C)C)Oc1ccc(C[C@H](NC(=O)OCc2ccccc2)C(=O)OC2CCCC2)cc1)CO` (stereo partly drawn) [Compound 1, Cyclopentyl (2S)-2-(benzyloxycarbonylamino)-3-[4-[[(E)-5-hydroxy-4-methyl-pent-3-enyl]-[[(1S)-2-isopropoxy-1-methyl-2-oxo-ethyl]amino]phosphoryl]oxyphenyl]propionate]: the EC50 is 0.1 nM.

`C/C(=C\CCP(=O)(N[C@@H](C)C(=O)OC(C)C)Oc1ccc(C[C@H](NC(=O)OCc2ccccc2)C(=O)O[C@H]2CCOC2)cc1)CO` (stereo partly drawn) [Compound 2, (S)-tetrahydrofuran-3-yl (2S)-2-(benzyloxycarbonylamino)-3-[4-[[(E)-5-hydroxy-4-methyl-pent-3-enyl]-[[(1S)-2-isopropoxy-1-methyl-2-oxo-ethyl]amino]phosphoryl]oxyphenyl]propionate]: the EC50 was found to be 0.12 nM.

Take `C/C(=C\CCP(=O)(N[C@@H](C)C(=O)OC(C)C)Oc1ccc(C[C@H](NC(=O)OCc2ccccc2)C(=O)O[C@@H]2CCOC2)cc1)CO` (stereo partly drawn) [Compound 3, (R)-tetrahydrofuran-3-yl (2S)-2-(benzyloxycarbonylamino)-3-[4-[[(E)-5-hydroxy-4-methyl-pent-3-enyl]-[[(1S)-2-isopropoxy-1-methyl-2-oxo-ethyl]amino]phosphoryl]oxyphenyl]propionate]: the EC50 was found to be 0.17 nM.

For `C/C(=C\CCP(=O)(N[C@@H](C)C(=O)OC(C)C)Oc1ccc(C[C@H](NC(=O)CCc2ccccc2)C(=O)OC2CCCC2)cc1)CO` (stereo partly drawn) [Compound 5, Cyclopentyl (2S)-2-(3-phenylpropionylamino)-3-[4-[[(E)-5-hydroxy-4-methyl-pent-3-enyl]-[[(1S)-2-isopropoxy-1-methyl-2-oxo-ethyl]amino]phosphoryl]oxyphenyl]propionate], the EC50 stood at 0.06 nM.

The same assay, now with this note: γδT cells co-cultured with MIAPaCa/FG2 cells, E:T=2:1, 20 hours; compound diluted 10-fold, 10^-12-10^-5 M; chemiluminescence; read-out: MIApaca killing.
With `C/C(=C\COP(=O)(O)OP(=O)(O)O)CO` [HMBPP control, reference compound], the EC50 came to 2.1 nM.
